Among the data in the SangsterLogP compilation are logD values, retold here.

The series is described as follows: method code SF-HPLC, from DOI: 10.1080/01483919108049310. Conditions: pH 8.5.
For the molecule `Cc1nn(-c2ccccc2)c(Nc2ccc(C(F)(F)F)cc2)c1[N+](=O)[O-]`, the logD was 3.89.
The molecule `Cc1ccccc1Nc1c([N+](=O)[O-])c(C)nn1-c1ccccc1` registered a logD of 3.8.
In the case of `Cc1nn(-c2ccccc2)c(Nc2ccc(Cl)cn2)c1[N+](=O)[O-]`, the logD was determined as 3.74.
With `Cc1nn(-c2ccccc2)c(NN=Cc2ccc3c(c2[N+](=O)[O-])OCO3)c1[N+](=O)[O-]`, the logD is 3.39.
As to `Cc1nn(-c2ccccc2)c(Nc2ccc([N+](=O)[O-])cc2)c1[N+](=O)[O-]`, the logD worked out at 2.78.
For `Cc1ccc(Nc2c([N+](=O)[O-])c(C)nn2-c2ccccc2)cc1` the value was 3.43; for `Cc1nn(-c2ccccc2)c(Nc2ccccc2)c1[N+](=O)[O-]`, 2.98; for `Cc1cccc(Nc2c([N+](=O)[O-])c(C)nn2-c2ccccc2)c1`, 3.25.

In general, logD refers to the decadic logarithm of the distribution of all forms, ionised or not, between an organic phase and buffer at a given pH.
